Results taken from article PMC11178787, “Development of a natural product optimization strategy for inhibitors against MraY, a promising antibacterial target” (Nature Communications, 2024).
pIC50: −log10 of the molar value.

Legend:
MraYSA (S. aureus MraY) = MraYSA (S. aureus MraY) (Staphylococcus aureus, UniProt Q2FZ93); assay: fluorescence assay of dansylated lipid I formation; type: biochemical
[1] = tested on: T1, Staphylococcus aureus #1958; assay: microbe, parasite or virus in culture; set-up: CLSI broth microdilution MIC in MHB-II; details: Staphylococcus aureus, 18 h, read-out: MIC
T1 construct: #1958
Procedure: (§1) MICs were determined by a microdilution broth method as recommended by the CLSI with MHB-II. For MICs of stable analogues, a 2-fold dilution of each compound was prepared in DMSO at 100-fold of the final concentration. The strains were inoculated with 5 × 10^5 cfu/mL in 96-well plates (each 100 μL/well), and 1 μL of DMSO solutions of the samples were added (contained less than 1% DMSO). The plates were incubated at 37 °C for 18 h and then MICs were determined. MICs of stable analogues in Table 1 were the highest value in three trials. MICs in Supplementary Table 1 were determined in one trial.

[2] = tested on: T2, Staphylococcus aureus #2934; assay: microbe, parasite or virus in culture; set-up: CLSI broth microdilution MIC in MHB-II; details: Staphylococcus aureus, 18 h, read-out: MIC
T2 construct: #2934
Procedure: as §1

Enterococcus faecalis 26 = tested on: T3, Enterococcus faecalis 26; assay: microbe, parasite or virus in culture; set-up: CLSI broth microdilution MIC in MHB-II; details: Enterococcus faecalis, 26, 18 h, read-out: MIC
T3 construct: 26
Procedure: as §1

[3] = tested on: T4, Staphylococcus aureus #2071; assay: microbe, parasite or virus in culture; set-up: CLSI broth microdilution MIC in MHB-II; details: Staphylococcus aureus, 18 h, read-out: MIC
T4 construct: #2071
Procedure: as §1

[4] = tested on: T5, Staphylococcus aureus #2334; assay: microbe, parasite or virus in culture; set-up: CLSI broth microdilution MIC in MHB-II; details: Staphylococcus aureus, 18 h, read-out: MIC
T5 construct: #2334
Procedure: as §1

Enterococcus faecium 8 = assay: microbe, parasite or virus in culture; set-up: CLSI broth microdilution MIC in MHB-II; details: Enterococcus faecium, 8, 18 h, read-out: MIC
Procedure: as §1

Enterococcus faecalis 30 = tested on: T6, Enterococcus faecalis 30; assay: microbe, parasite or virus in culture; set-up: CLSI broth microdilution MIC in MHB-II; details: Enterococcus faecalis, 30, 18 h, read-out: MIC
T6 construct: 30
Procedure: as §1

Enterococcus faecium 10 = tested on: T7, Enterococcus faecium 10; assay: microbe, parasite or virus in culture; set-up: CLSI broth microdilution MIC in MHB-II; details: Enterococcus faecium, 10, 18 h, read-out: MIC
T7 construct: 10
Procedure: as §1

Enterococcus faecalis 22 = tested on: T8, Enterococcus faecalis 22; assay: microbe, parasite or virus in culture; set-up: CLSI broth microdilution MIC in MHB-II; details: Enterococcus faecalis, 22, 18 h, read-out: MIC
T8 construct: 22
Procedure: as §1

[5] = tested on: T9, Staphylococcus aureus #2935; assay: microbe, parasite or virus in culture; set-up: CLSI broth microdilution MIC in MHB-II; details: Staphylococcus aureus, 18 h, read-out: MIC
T9 construct: #2935
Procedure: as §1

Enterococcus faecalis 27 = tested on: T10, Enterococcus faecalis 27; assay: microbe, parasite or virus in culture; set-up: CLSI broth microdilution MIC in MHB-II; details: Enterococcus faecalis, 27, 18 h, read-out: MIC
T10 construct: 27
Procedure: as §1

Enterococcus faecalis 21 = tested on: T11, Enterococcus faecalis 21; assay: microbe, parasite or virus in culture; set-up: CLSI broth microdilution MIC in MHB-II; details: Enterococcus faecalis, 21, 18 h, read-out: MIC
T11 construct: 21
Procedure: as §1

Enterococcus faecium 4 = assay: microbe, parasite or virus in culture; set-up: CLSI broth microdilution MIC in MHB-II; details: Enterococcus faecium, 4, 18 h, read-out: MIC
Procedure: as §1

[6] = tested on: T12, Staphylococcus aureus #2110; assay: microbe, parasite or virus in culture; set-up: CLSI broth microdilution MIC in MHB-II; details: Staphylococcus aureus, 18 h, read-out: MIC
T12 construct: #2110
Procedure: as §1

Enterococcus faecium 9 = assay: microbe, parasite or virus in culture; set-up: CLSI broth microdilution MIC in MHB-II; details: Enterococcus faecium, 9, 18 h, read-out: MIC
Procedure: as §1

Enterococcus faecium 1 = assay: microbe, parasite or virus in culture; set-up: CLSI broth microdilution MIC in MHB-II; details: Enterococcus faecium, 1, 18 h, read-out: MIC
Procedure: as §1

[7] = tested on: T13, Staphylococcus aureus #2932; assay: microbe, parasite or virus in culture; set-up: CLSI broth microdilution MIC in MHB-II; details: Staphylococcus aureus, 18 h, read-out: MIC
T13 construct: #2932
Procedure: as §1

Enterococcus faecium 2 = assay: microbe, parasite or virus in culture; set-up: CLSI broth microdilution MIC in MHB-II; details: Enterococcus faecium, 2, 18 h, read-out: MIC
Procedure: as §1

Enterococcus faecium 7 = assay: microbe, parasite or virus in culture; set-up: CLSI broth microdilution MIC in MHB-II; details: Enterococcus faecium, 7, 18 h, read-out: MIC
Procedure: as §1

Enterococcus faecium 11 = tested on: T14, Enterococcus faecium 11; assay: microbe, parasite or virus in culture; set-up: CLSI broth microdilution MIC in MHB-II; details: Enterococcus faecium, 11, 18 h, read-out: MIC
T14 construct: 11
Procedure: as §1

[8] = tested on: T15, Staphylococcus aureus #2933; assay: microbe, parasite or virus in culture; set-up: CLSI broth microdilution MIC in MHB-II; details: Staphylococcus aureus, 18 h, read-out: MIC
T15 construct: #2933
Procedure: as §1

Enterococcus faecalis 24 = tested on: T16, Enterococcus faecalis 24; assay: microbe, parasite or virus in culture; set-up: CLSI broth microdilution MIC in MHB-II; details: Enterococcus faecalis, 24, 18 h, read-out: MIC
T16 construct: 24
Procedure: as §1

Enterococcus faecium 3 = assay: microbe, parasite or virus in culture; set-up: CLSI broth microdilution MIC in MHB-II; details: Enterococcus faecium, 3, 18 h, read-out: MIC
Procedure: as §1

Enterococcus faecalis 28 = tested on: T17, Enterococcus faecalis 28; assay: microbe, parasite or virus in culture; set-up: CLSI broth microdilution MIC in MHB-II; details: Enterococcus faecalis, 28, 18 h, read-out: MIC
T17 construct: 28
Procedure: as §1

Enterococcus faecium 5 = assay: microbe, parasite or virus in culture; set-up: CLSI broth microdilution MIC in MHB-II; details: Enterococcus faecium, 5, 18 h, read-out: MIC
Procedure: as §1

[9] = tested on: T18, Staphylococcus aureus #2310; assay: microbe, parasite or virus in culture; set-up: CLSI broth microdilution MIC in MHB-II; details: Staphylococcus aureus, 18 h, read-out: MIC
T18 construct: #2310
Procedure: as §1

Sequence of MraYSA (S. aureus MraY) (Q2FZ93 whole entry): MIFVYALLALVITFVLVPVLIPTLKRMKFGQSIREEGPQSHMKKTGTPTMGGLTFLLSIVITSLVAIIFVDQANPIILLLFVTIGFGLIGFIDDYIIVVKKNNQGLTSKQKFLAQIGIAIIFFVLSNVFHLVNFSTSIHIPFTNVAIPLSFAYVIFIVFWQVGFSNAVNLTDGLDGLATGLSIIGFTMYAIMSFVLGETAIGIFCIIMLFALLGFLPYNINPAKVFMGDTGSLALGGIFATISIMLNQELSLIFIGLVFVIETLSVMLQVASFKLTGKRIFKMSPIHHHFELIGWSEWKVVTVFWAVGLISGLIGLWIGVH

CCCCCCCCCCCCCCCC(=O)N[C@@H](CCCCN)C(=O)NCc1cccc(CN[C@H](C(=O)O)[C@H](O[C@@H]2O[C@H](CN)[C@@H](O)[C@H]2O)[C@H]2O[C@@H](n3ccc(=O)[nH]c3=O)[C@H](O)[C@@H]2O)c1 [compound 2, analogue 2]
0.5 µg/mL: MIC [2] | MIC (Enterococcus faecium 8) | MIC (Enterococcus faecium 4) | MIC (Enterococcus faecium 9) | MIC [8]
8.23: pIC50 (MraYSA (S. aureus MraY))
< 0.06 µg/mL: MIC (Enterococcus faecalis 28)
1 µg/mL: MIC [1] | MIC [3] | MIC [4] | MIC (Enterococcus faecium 10) | MIC [5] | MIC (Enterococcus faecium 1) | MIC [7] | MIC (Enterococcus faecium 2) | MIC (Enterococcus faecium 11) | MIC (Enterococcus faecium 3) | MIC (Enterococcus faecium 5)
2 µg/mL: MIC [6] | MIC (Enterococcus faecium 7) | MIC [9]
0.13 µg/mL: MIC (Enterococcus faecalis 26) | MIC (Enterococcus faecalis 22) | MIC (Enterococcus faecalis 21)
0.25 µg/mL: MIC (Enterococcus faecalis 30) | MIC (Enterococcus faecalis 27) | MIC (Enterococcus faecalis 24)
